The results in this text go back to patent publication US20040097594A1 (priority 1998, published 2004).

Usually Ki stands for the dissociation constant of the complex between target and ligand, obtained from inhibition or displacement. By IC50 is commonly meant the midpoint of a concentration-inhibition curve.

Where two headings read alike, the source gives them in different places.

One experiment deals with HIV-1 protease (Human immunodeficiency virus type 1 group M subtype B, UniProt P04585). Briefly: biochemical.
A further experiment deals with HIV-1 (strain IIIB). Briefly: microbe, parasite or virus in culture. The experiment is classed as cell-based. To be noted: lower line of each compound's entry, read-out: IC50 (MT-4 cells).
Setting [1] is: HIV-1 protease, upper line of each compound's entry, read-out: Ki (enzyme).
Setting [2] is: Human immunodeficiency virus 1, 120 h, MT4 cells infected with HIV-1 strain IIIB, 5 days.

Consider `COc1ccc(S(=O)(=O)N(C[C@@H](O)[C@H](Cc2ccccc2)NC(=O)OC(C)(C)C)OCc2ccccc2)cc1` [Compound 21, tert-butyl N-((1S,2R)-1-benzyl-3-(benzyloxy)[(4-methoxyphenyl)sulfonyl]amino-2-hydroxypropyl)carbamate], for which, at HIV-1 protease (setting [1]), the inhibitory constant (Ki) is 10 to 100 nM. The IC50 with HIV-1 (strain IIIB) (setting [2]) was over 1000 nM.
As to `O=C(N[C@@H](Cc1ccccc1)[C@H](O)CN(OC1CCCC1)S(=O)(=O)c1ccc2c(c1)OCCO2)OC1CO[C@H]2OCC[C@@H]12` (stereo partly drawn) [Compound 139, (3R,3aS,6aR)hexahydrofuro[2,3-b]furan-3-yl N-(1S,2R)-1-benzyl-3-[(cyclopentyloxy)(2,3-dihydro-1,4-benzodioxin-6-ylsulfonyl)amino]-2-hydroxypropylcarbamate], the Ki on HIV-1 protease was under 1 nM. Further, the IC50 in the experiment on HIV-1 (strain IIIB) (setting [2]) was at most 100 nM.
On to `COc1ccc(S(=O)(=O)N(C[C@@H](O)[C@H](Cc2ccccc2)NC(=O)O[C@H]2CCOC2)OC2CCOCC2)cc1` [Compound 72, (3S)tetrahydro-3-furanyl N-(1S,2R)-1-benzyl-2-hydroxy-3-[[(4-methoxyphenyl)sulfonyl](tetrahydro-2H-pyran-4-yloxy)amino]propylcarbamate], for which the Ki on HIV-1 protease (setting [1]) is 1 to 10 nM. Besides, in the experiment with HIV-1 (strain IIIB) (setting [2]), the IC50 was 500 to 1000 nM.
On the same counts, the results for `O=C(NC(Cc1ccccc1)C(O)CN(OC1CCCC1)S(=O)(=O)c1cccc(NCC(=O)N2CCOCC2)c1)OC1COC2OCCC12` [Compound 87, (3R,3aS,6aR)hexahydrofuro[2,3-b]furan-3-yl N-(1S,2R)-1-benzyl-3-[(cyclopentyloxy)(3-[(2-morpholino-2-oxoethyl)amino]phenylsulfonyl)amino]-2-hydroxypropylcarbamate and (3S,3aR,6aS)hexahydrofuro[2,3-b]furan-3-yl N-(1S,2R)-1-benzyl-3-[(cyclopentyloxy)(3-[(2-morpholino-2-oxoethyl)amino]phenylsulfonyl)amino]-2-hydroxypropylcarbamate] are under 1 nM and at most 100 nM.
For `NC(=O)C[C@H](NC(=O)c1ccc2ccccc2n1)C(=O)N[C@@H](Cc1ccccc1)[C@H](O)CN(OC1CCCC1)S(=O)(=O)c1cccc(N)c1` [Compound 49, (2S)-N^1-(1S,2R)-3-[[(3-aminophenyl)sulfonyl](cyclopentyloxy)amino]-1-benzyl-2-hydroxypropyl-2-[(2-quinolinylcarbonyl)amino]butanediamide] the same measures were under 1 nM and at most 100 nM.
Turning to `O=C(N[C@@H](Cc1ccccc1)[C@H](O)CC(OC1CCCC1)S(=O)(=O)c1ccc2nccnc2c1)OC1CCOC1` (stereo in doubt) [Compound 110, (3S)tetrahydro-3-furanyl N-[(1S,2R)-1-benzyl-4-(cyclopentyloxy)-2-hydroxy-4-(6-quinoxalinylsulfonyl)butyl]carbamate], the Ki on HIV-1 protease (setting [1]) is under 1 nM. Besides, in the experiment on HIV-1 (strain IIIB) (setting [2]), the concentration for half-maximal inhibition (IC50) fell in the range of 100 to 500 nM.
On the same counts, the results for `O=C(N[C@@H](Cc1ccccc1)[C@H](O)CN(OC1CCCC1)S(=O)(=O)c1ccc2cn[nH]c2c1)OC1CO[C@H]2OCC[C@@H]12` (stereo partly drawn) [Compound 59, (3aS,6aR)Hexahydro[2,3-b]furan-3-yl N-(1S,2R)-1-benzyl-3-[(cyclopentyloxy)(1H-indazol-6-ylsulfonyl)amino]-2-hydroxypropylcarbamate] are under 1 nM and at most 100 nM.
For the compound `COc1ccc(S(=O)(=O)N(C[C@@H](O)[C@H](Cc2ccccc2)NC(=O)OC2COCOC2)OC2CCOCC2)cc1` [Compound 74, 1,3-dioxan-5-yl N-(1S,2R)-1-benzyl-2-hydroxy-3-[[(4-methoxyphenyl)sulfonyl](tetrahydro-2H-pyran-4-yloxy)amino]propylcarbamate], on HIV-1 protease (setting [1]), the inhibition constant Ki is under 1 nM. Besides, in the experiment on HIV-1 (strain IIIB) (setting [2]), the IC50 is at most 100 nM.
On the same counts, the results for `CNC(=O)NCCNc1cccc(S(=O)(=O)N(CC(O)C(Cc2ccccc2)NC(=O)OC2COC3OCCC23)OC2CCCC2)c1` [Compound 121, (3R,3aS,6aR)hexahydrofuro[2,3-b]furan-3-yl N-(1S,2R)-1-benzyl-3-[(cyclopentyloxy)(3-[(2-[(methylamino)carbonyl]aminoethyl)amino]phenylsulfonyl)amino]-2-hydroxypropylcarbamate and (3S,3aR,6aS)hexahydrofuro[2,3-b]furan-3-yl N-(1S,2R)-1-benzyl-3-[(cyclopentyloxy)(3-[(2-[(methylamino)carbonyl]aminoethyl)amino]phenylsulfonyl)amino]-2-hydroxypropylcarbamate] are under 1 nM and 100 to 500 nM.
On the same counts, the results for `CNc1cccc(S(=O)(=O)N(C[C@@H](O)[C@H](Cc2ccccc2)NC(=O)O[C@H]2CO[C@H]3OCC[C@H]32)OC(C)C)c1` [Compound 127] are under 1 nM and at most 100 nM.
For `COc1ccc(S(=O)(=O)N(C[C@@H](O)[C@H](Cc2ccccc2)NC(=O)OC(C)(C)C)OC2CCOCC2)cc1` [Compound 18, tert-butyl N-(1S,2R)-1-benzyl-2-hydroxy-3-[[(4-methoxyphenyl)sulfonyl](tetrahydro-2H-pyran-4-yloxy)amino]propylcarbamate] the same measures were 1 to 10 nM and over 1000 nM.
At HIV-1 protease, `O=C(N[C@@H](Cc1ccccc1)[C@@H](CN(OC1CCCC1)S(=O)(=O)c1ccc2c(c1)OCCO2)OP(=O)(O)O)O[C@H]1CO[C@H]2OCC[C@H]21` [Compound 144, (3R,3aS,6aR)hexahydrofuro[2,3-b]furan-3-yl N-[(1S,2R)-1-benzyl-3-[(cyclopentyloxy)(2,3-dihydro-1,4-benzodioxin-6-ylsulfonyl)amino]-2-(phosphonooxy)propyl]carbamate] displayed an inhibition constant (Ki) of under 1 nM. In addition, in the experiment with HIV-1 (strain IIIB) (setting [2]), the IC50 is at most 100 nM.
As to `Nc1n[nH]c2ccc(S(=O)(=O)N(C[C@@H](O)[C@H](Cc3ccccc3)NC(=O)O[C@H]3CO[C@H]4OCC[C@H]43)OC3CCCC3)cc12` [Compound 108, (3R,3aS,6aR)Hexahydrofuro[2,3-b]furan-3-yl N-(1S,2R)-1-benzyl-3-[(cyclopentyloxy) (3-aminoindazole-5-ylsulfonyl)amino]-2-hydroxypropylcarbamate], the Ki at HIV-1 protease (setting [1]) was in the range of 10 to 100 nM. Besides, in the experiment with HIV-1 (strain IIIB) (setting [2]), the IC50 was over 500 nM.
On the same counts, the results for `CC(C)ON(C[C@@H](O)[C@H](Cc1ccccc1)NC(=O)O[C@H]1CCOC1)S(=O)(=O)c1cccc(N)c1` [Compound 61, (3S)tetrahydro-3-furanyl N-(1S,2R)-3-[[(3-aminophenyl)sulfonyl](isopropoxy)amino]-1-benzyl-2-hydroxypropylcarbamate] are 1 to 10 nM and 500 to 1000 nM.
Turning to `CCC(C)ON(C[C@@H](O)[C@H](Cc1ccccc1)NC(=O)[C@H](CC(N)=O)NC(=O)c1ccc2ccccc2n1)S(=O)(=O)c1ccc(OC)cc1` (stereo partly shown) [Compound 71], the Ki on HIV-1 protease (setting [1]) is under 1 nM. The IC50 in the experiment on HIV-1 (strain IIIB) (Human immunodeficiency virus 1, IIIB, MT4, 120 h, […]) was at most 100 nM.
Turning to `CCOC(=O)CNC(=O)NCCNc1cccc(S(=O)(=O)N(CC(O)C(Cc2ccccc2)NC(=O)OC2COC3OCCC23)OC2CCCC2)c1` (mixture of isomers) [Compound 113, Ethyl 2-[([2-(3-[[(2R,3S)-3-([(3R,3aS,6aR)hexahydrofuro[2,3-b]furan-3-yloxy]carbonylamino)-2-hydroxy-4-phenylbutyl](cyclopentyloxy)amino]sulfonylanilino)ethyl]aminocarbonyl)amino]acetate and ethyl 2-[([2-(3-[[(2R,3S)-3-([(3S,3aR,6aS)hexahydrofuro[2,3-b]furan-3-yloxy]carbonylamino)-2-hydroxy-4 phenylbutyl](cyclopentyloxy)amino]sulfonylanilino)ethyl]aminocarbonyl)amino]acetate], the Ki at HIV-1 protease (setting [1]) is under 1 nM. Also, the IC50 with HIV-1 (strain IIIB) (setting [2]) was at most 100 nM.
As to `CC(C)ON(C[C@@H](O)[C@H](Cc1ccccc1)NC(=O)OC(C)(C)C)S(=O)(=O)c1ccc(N)c(N)c1` [Compound 2], the Ki on HIV-1 protease (setting [1]) lay within 10 to 100 nM. Besides, in the experiment on HIV-1 (strain IIIB) (setting [2]), the IC50 is over 1000 nM.
On the same counts, the results for `O=C(N[C@@H](Cc1ccccc1)[C@H](O)CN(OC1CCCC1)S(=O)(=O)c1cccc(O)c1)O[C@H]1CO[C@H]2OCC[C@H]21` [Compound 44, (3R,3aS,6aR)hexahydrofuro[2,3-b]furan-3-yl N-((1S,2R)-1-benzyl-3-(cyclopentyloxy)[(3-hydroxyphenyl)sulfonyl]amino-2-hydroxypropyl)carbamate] are under 1 nM and at most 100 nM.
For `COc1cccc(S(=O)(=O)N(C[C@@H](O)[C@H](Cc2ccccc2)NC(=O)O[C@H]2CO[C@H]3OCC[C@H]32)OC2CCCC2)c1` [Compound 123, (3R,3aS,6aR)hexahydrofuro[2,3-b]furan-3-yl N-[(1S,2R)-1-benzyl-3-((cyclopentyloxy)[(3-methoxyphenyl)sulfonyl]amino)-2-hydroxypropyl]carbamate] the same measures were under 1 nM and at most 100 nM.
For `CC(=O)Nc1nc2ccc(S(=O)(=O)N(C[C@@H](O)[C@H](Cc3ccccc3)NC(=O)OC3COCOC3)OC3CCCC3)cc2s1` [Compound 114] the same measures were under 1 nM and at most 100 nM.
In the case of `CCC(C)ON(C[C@@H](O)[C@H](Cc1ccccc1)NC(=O)c1cccc(O)c1C)S(=O)(=O)c1ccc(OC)cc1` (stereo partly shown) [Compound 70], the Ki at HIV-1 protease (setting [1]) is under 1 nM. Also, in the experiment with HIV-1 (strain IIIB) (setting [2]), the IC50 was over 500 nM.
For `Nc1cccc(S(=O)(=O)N(C[C@@H](O)[C@H](Cc2ccccc2)NC(=O)O[C@H]2CO[C@H]3OCC[C@H]32)OC2CCCCC2)c1` [Compound 154, (3R,3aS,6aR)hexahydrofuro[2,3-b]furan-3-yl(1S,2R)-3-[[(3-aminophenyl)sulfonyl](cyclohexyloxy)amino]-1-benzyl-2-hydroxypropylcarbamate] the same measures were under 1 nM and at most 100 nM.
For `CC(C)ON(C[C@@H](O)[C@H](Cc1ccccc1)NC(=O)O[C@H]1CO[C@H]2OCC[C@H]21)S(=O)(=O)c1cccc(N(C)C(=O)OC(C)(C)C)c1` [Compound 126] the same measures were over 100 nM and over 1000 nM.
